In this assay the target is T1, ALK (baculovirus expressed human ALK kinase domain F1098-K1410) (Homo sapiens, UniProt Q9UM73).
T1 construct: human ALK kinase domain F1098-K1410; made in house
The experiment in a line: biochemical. Conditions: 1 μM ATP, 4 μM poly-AEKY, 12 nM ALK, 2 hours at ambient temperature; read-out: ALK IC50. Here is the method:
Kinase activity and compound inhibition are investigated using one or more of the three assay formats described below. The ATP concentrations for each assay are selected to be close to the Michaelis-Menten constant (KM) for each individual kinase. Dose-response experiments are performed at 10 different inhibitor concentrations in a 384-well plate format. […] Y=Min+(Max−Min)/(1+(X/IC50)^H) Equation (2) Luciferase-Coupled Chemiluminescent Kinase Assay
ALK biochemical activity was assessed using a Luciferase-Coupled Chemiluminescent Kinase assay (LCCA) format in which kinase activity was measured as the percent ATP remaining following the kinase reaction. ATP remaining after the kinase reaction was detected by luciferase-luciferin-coupled chemiluminescence. […] The mixture was incubated at ambient temperature for 2 hours after which 20 μL luciferase-luciferin mix was added and the chemiluminescent signal read using a Wallac Victor^2 reader. […] Consumption of ATP by ALK can be quantified and utilized as a measure of inhibition of ALK activity by compounds described herein. By employing serial dilutions of compounds to be tested, the ability of test compounds to inhibit ALK activity can be determined.

The structures appear in SMILES notation.

T1 sequence (Q9UM73 1098-1410): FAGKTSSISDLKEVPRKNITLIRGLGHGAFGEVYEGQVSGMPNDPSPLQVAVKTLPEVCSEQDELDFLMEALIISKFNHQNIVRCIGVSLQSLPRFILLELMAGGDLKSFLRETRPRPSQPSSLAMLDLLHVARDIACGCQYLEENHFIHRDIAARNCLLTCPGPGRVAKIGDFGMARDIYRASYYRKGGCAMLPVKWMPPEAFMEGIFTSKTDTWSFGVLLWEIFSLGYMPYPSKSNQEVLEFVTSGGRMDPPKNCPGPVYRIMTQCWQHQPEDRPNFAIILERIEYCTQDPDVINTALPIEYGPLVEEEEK

With `CC(NC(=O)COc1ccc(OC(F)(F)F)cc1)c1nc(C(=O)NCCc2cccc(Cl)c2)cs1` (centres unmarked) [Entry 1, N-[2-(3-chlorophenyl)ethyl]-2-(1-{[({4-[(trifluoromethyl)oxy]phenyl}oxy)acetyl]amino}ethyl)-1,3-thiazole-4-carboxamide], the IC50 is below 50 nM.
The result for `O=C(COc1ccc(OC(F)(F)F)cc1)NCc1nc(C(=O)NCCc2cccc(Cl)c2)cs1` [Entry 2, N-[2-(3-chlorophenyl)ethyl]-2-({[({4-[(trifluoromethyl)oxy]phenyl}oxy)acetyl]amino}methyl)-1,3-thiazole-4-carboxamide] reads below 50 nM; that for `O=C(COc1ccc(OC(F)(F)F)cc1)NCc1nc(C(=O)N2Cc3ccccc3C2)cs1` [Entry 3, N-{[4-(1,3-dihydro-2H-isoindol-2-ylcarbonyl)-1,3-thiazol-2-yl]methyl}-2-({4-[(trifluoromethyl)oxy]phenyl}oxy)acetamide], below 50 nM.
With `O=C(COc1ccc(OC(F)(F)F)cc1)NCc1nc(C(=O)NCC2c3ccccc3CCc3ccccc32)cs1` [Entry 4, N-(10,11-dihydro-5H-dibenzo[a,d]cyclohepten-5-ylmethyl)-2-({[({4-[(trifluoromethyl)oxy]phenyl}oxy)acetyl]amino}methyl)-1,3-thiazole-4-carboxamide], the IC50 was below 50 nM.
The result for `O=C(COc1ccc(OC(F)(F)F)cc1)NCc1nc(C(=O)NCCc2ccccc2F)cs1` [Entry 5, N-[2-(2-fluorophenyl)ethyl]-2-({[({4-[(trifluoromethyl)oxy]phenyl}oxy)acetyl]amino}methyl)-1,3-thiazole-4-carboxamide] reads below 50 nM.
The result for `C[C@@H](CNC(=O)c1csc(CNC(=O)COc2ccc(OC(F)(F)F)cc2)n1)c1ccccc1` [Entry 6, N-[(2R)-2-phenylpropyl]-2-({[({4-[(trifluoromethyl)oxy]phenyl}oxy)acetyl]amino}methyl)-1,3-thiazole-4-carboxamide] reads below 50 nM.
The figure for `CC(CNC(=O)c1csc(CNC(=O)COc2ccc(OC(F)(F)F)cc2)n1)c1ccccc1` (centres unmarked) [Entry 7, N-(2-phenylpropyl)-2-({[({4-[(trifluoromethyl)oxy]phenyl}oxy)acetyl]amino}methyl)-1,3-thiazole-4-carboxamide] is below 50 nM; for `CCc1ccc(NC(=O)NCc2nc(C(=O)NCCc3cccc(Cl)c3)cs2)cc1` [Entry 8, N-[2-(3-chlorophenyl)ethyl]-2-[({[(4-ethylphenyl)amino]carbonyl}amino)methyl]-1,3-thiazole-4-carboxamide] it is below 50 nM.
With `COc1ccc(CCNC(=O)c2csc(CNC(=O)COc3ccc(OC(F)(F)F)cc3)n2)cc1` [Entry 9, N-{2-[4-(methyloxy)phenyl]ethyl}-2-({[({4-[(trifluoromethyl)oxy]phenyl}oxy)acetyl]amino}methyl)-1,3-thiazole-4-carboxamide], the IC50 is below 50 nM.
The result for `COc1cccc(CNC(=O)c2csc(CNC(=O)COc3ccc(OC(F)(F)F)cc3)n2)c1OC` [Entry 11, N-{[2,3-bis(methyloxy)phenyl]methyl}-2-({[({4-[(trifluoromethyl)oxy]phenyl}oxy)acetyl]amino}methyl)-1,3-thiazole-4-carboxamide] reads below 50 nM; that for `C[C@@H]1[C@@H](NC(=O)c2csc(CNC(=O)COc3ccc(OC(F)(F)F)cc3)n2)C[C@H]2C[C@@H]1C2(C)C` [Entry 12, 2-({[({4-[(trifluoromethyl)oxy]phenyl}oxy)acetyl]amino}methyl)-N-[(1S,2S,3S,5R)-2,6,6-trimethylbicyclo[3.1.1]hept-3-yl]-1,3-thiazole-4-carboxamide], below 50 nM.
The figure for `NS(=O)(=O)c1ccc(CCNC(=O)c2csc(CNC(=O)COc3ccc(OC(F)(F)F)cc3)n2)cc1` [Entry 13, N-{2-[4-(aminosulfonyl)phenyl]ethyl}-2-({[({4-[(trifluoromethyl)oxy]phenyl}oxy)acetyl]amino}methyl)-1,3-thiazole-4-carboxamide] is below 50 nM; for `O=C(COc1ccc(OC(F)(F)F)cc1)NCc1nc(C(=O)NCCc2cccc(F)c2)cs1` [Entry 14, N-[2-(3-fluorophenyl)ethyl]-2-({[({4-[(trifluoromethyl)oxy]phenyl}oxy)acetyl]amino}methyl)-1,3-thiazole-4-carboxamide] it is below 50 nM; for `Cc1ccccc1CCNC(=O)c1csc(CNC(=O)COc2ccc(OC(F)(F)F)cc2)n1` [Entry 15, N-[2-(2-methylphenyl)ethyl]-2-({[({4-[(trifluoromethyl)oxy]phenyl}oxy)acetyl]amino}methyl)-1,3-thiazole-4-carboxamide] it is below 50 nM.
The figure for `O=C(COc1ccc(I)cc1)NCc1nc(C(=O)NCCc2cccc(Cl)c2)cs1` [Entry 16, N-[2-(3-chlorophenyl)ethyl]-2-[({[(4-iodophenyl)oxy]acetyl}amino)methyl]-1,3-thiazole-4-carboxamide] is below 50 nM; for `COc1ccccc1CNC(=O)c1csc(CNC(=O)COc2ccc(OC(F)(F)F)cc2)n1` [Entry 17, N-{[2-(methyloxy)phenyl]methyl}-2-({[({4-[(trifluoromethyl)oxy]phenyl}oxy)acetyl]amino}methyl)-1,3-thiazole-4-carboxamide] it is below 50 nM; for `O=C(COc1ccc(OC(F)(F)F)cc1)NCc1nc(C(=O)NCC(c2ccccc2)c2ccccc2)cs1` [Entry 18, N-(2,2-diphenylethyl)-2-({[({4-[(trifluoromethyl)oxy]phenyl}oxy)acetyl]amino}methyl)-1,3-thiazole-4-carboxamide] it is below 50 nM.
In the case of `O=C(COc1ccc(OC(F)(F)F)cc1)NCc1nc(C(=O)NCCc2cccs2)cs1` [Entry 19, N-[2-(2-thienyl)ethyl]-2-({[({4-[(trifluoromethyl)oxy]phenyl}oxy)acetyl]amino}methyl)-1,3-thiazole-4-carboxamide], the IC50 is below 50 nM.
The result for `CCOc1cc(CCNC(=O)c2csc(CNC(=O)COc3ccc(OC(F)(F)F)cc3)n2)ccc1OC` [Entry 20, N-{2-[3-(ethyloxy)-4-(methyloxy)phenyl]ethyl}-2-({[({4-[(trifluoromethyl)oxy]phenyl}oxy)acetyl]amino}methyl)-1,3-thiazole-4-carboxamide] reads below 50 nM.
The result for `Cc1cccc(CCNC(=O)c2csc(CNC(=O)COc3ccc(OC(F)(F)F)cc3)n2)c1` [Entry 21, N-[2-(3-methylphenyl)ethyl]-2-({[({4-[(trifluoromethyl)oxy]phenyl}oxy)acetyl]amino}methyl)-1,3-thiazole-4-carboxamide] reads below 50 nM; that for `COc1ccccc1CNC(=O)c1csc(CNC(=O)COc2ccc(C(C)(C)C)cc2)n1` [Entry 22, 2-{[({[4-(1,1-dimethylethyl)phenyl]oxy}acetyl)amino]methyl}-N-{[2-(methyloxy)phenyl]methyl}-1,3-thiazole-4-carboxamide], below 50 nM; that for `O=C(COc1ccc(OC(F)(F)F)cc1)NCc1nc(C(=O)NC23C[C@H]4C[C@@H](C2)C[C@@H](C3)C4)cs1` [Entry 23, N-tricyclo[3.3.1.1~3,7~]dec-1-yl-2-({[({4-[(trifluoromethyl)oxy]phenyl}oxy)acetyl]amino}methyl)-1,3-thiazole-4-carboxamide], below 50 nM.
The figure for `O=C(COc1ccc(OC(F)(F)F)cc1)NCc1nc(C(=O)NCCc2ccc(F)cc2)cs1` [Entry 24, N-[2-(4-fluorophenyl)ethyl]-2-({[({4-[(trifluoromethyl)oxy]phenyl}oxy)acetyl]amino}methyl)-1,3-thiazole-4-carboxamide] is below 50 nM.
Take `CC(C)c1ccc(NC(=O)NCc2nc(C(=O)NCCc3cccc(Cl)c3)cs2)cc1` [Entry 25, N-[2-(3-chlorophenyl)ethyl]-2-{[({[4-(1-methylethyl)phenyl]amino}carbonyl)amino]methyl}-1,3-thiazole-4-carboxamide]: the IC50 was below 50 nM.
`C[C@H](CNC(=O)c1csc(CNC(=O)COc2ccc(OC(F)(F)F)cc2)n1)c1ccccc1` [Entry 26, N-[(2S)-2-phenylpropyl]-2-({[({4-[(trifluoromethyl)oxy]phenyl}oxy)acetyl]amino}methyl)-1,3-thiazole-4-carboxamide]: the IC50 is below 50 nM.
As for `CC(C)c1ccc(NC(=O)NCc2nc(C(=O)NCCc3ccccc3F)cs2)cc1` [Entry 27, N-[2-(2-fluorophenyl)ethyl]-2-{[({[4-(1-methylethyl)phenyl]amino}carbonyl)amino]methyl}-1,3-thiazole-4-carboxamide], the IC50 was below 50 nM.
The figure for `CCOc1cccc(CCNC(=O)c2csc(CNC(=O)COc3ccc(OC(F)(F)F)cc3)n2)c1` [Entry 28, N-{2-[3-(ethyloxy)phenyl]ethyl}-2-({[({4-[(trifluoromethyl)oxy]phenyl}oxy)acetyl]amino}methyl)-1,3-thiazole-4-carboxamide] is 50 to 500 nM.
The result for `COc1ccccc1CNC(=O)c1csc(CNC(=O)Nc2ccc(C(C)C)cc2)n1` [Entry 29, 2-{[({[4-(1-methylethyl)phenyl]amino}carbonyl)amino]methyl}-N-{[2-(methyloxy)phenyl]methyl}-1,3-thiazole-4-carboxamide] reads 50 to 500 nM.
On to `COc1cc(CCNC(=O)c2csc(CNC(=O)COc3ccc(OC(F)(F)F)cc3)n2)cc(OC)c1` [Entry 30, N-{2-[3,5-bis(methyloxy)phenyl]ethyl}-2-({[({4-[(trifluoromethyl)oxy]phenyl}oxy)acetyl]amino}methyl)-1,3-thiazole-4-carboxamide], for which the IC50 is 50 to 500 nM.

As a reminder, the IC50 is the concentration that inhibits the measured activity by half.

(Values after US7973061B2, “Anaplastic lymphoma kinase modulators and methods of use” (Exelixis, Inc., priority 2004, dated 2011).)
